What was measured:
Assay type in all cases: cell-based
[1] = tested on: Candida albicans ATCC 90028; assay: MIC microdilution assay (Example 32); settings: Candida albicans, ATCC90028; C. albicans ATCC 90028 (quality control); RPMI media; 35±2° C. 24 to 48 hours; two values given; read-out: MIC
Experimental: (§1) Strain IDs starting with “ATCC” were acquired from the American Type Culture Collection (Manassas, VA), strain IDs starting with “Eurofins” were acquired from Eurofins (Herndon, VA), while strain IDs starting with “CDC” were acquired from the Centers for Disease Control and Prevention (Atlanta, GA). All strains were maintained as −80° C. frozen glycerol stocks. S. aureus and P. aeruginosa were grown overnight on Tryptic Soy Agar (TSA) plates at 35±2° C., ambient atmosphere, while S. pyogenes was grown overnight on TSA+5% defibrinated sheep blood at 35±2° C., 5% CO2. C. jejuni was grown for 48 hours on TSA+5% defibrinated sheep blood at 35±2° C., in a microaerophilic environment generated by CampyGen sachet. All fungal species (i.e. C. albicans and C. auris) were grown overnight on Sabouraud Dextrose Agar (SDA) plates at 35±2° C., ambient atmosphere.
(§2) Test article Compound 1 (batch #7G30A9.203) was stored at 4° C. The antibiotic Tobramycin and antifungal Amphotericin B were used as quality control (QC) compounds for the MIC assay. Stock solutions of 3.2 mg/mL Tobramycin (Sigma-Aldrich, cat #T1783-500MG) and 3.2 mg/mL Amphotericin B (CP Lab Chemicals, cat #TOK-A007-1G) were prepared in sterile ultrapure water.
(§3) For bacteria strains, a few colonies of each strain were collected with a sterile swab and used to make a McFarland 0.5 standard solution (approximately 1×10^8 CFU/mL) in sterile PBS. The McFarland was then diluted 1:180 in Cation Adjusted Muller-Hinton Broth (CAMHB) for S. aureus and P. aeruginosa. S. pyogenes McFarland was diluted 1:180 in CAMHB+5% defibrinated sheep blood, while C. jejuni McFarland was diluted 1:180 in CAMHB+5% laked horse blood. 90 μL of this inoculum was combined with 10 μL of the 10× test article in a 96-well plate for a final concentration of 1×.
(§4) For the yeasts C. albicans and C. auris, a McFarland 0.5 standard solution in sterile PBS was similarly prepared (approximately 1×10^6 CFU/mL) and was subsequently diluted 1:180 in RPMI 1640 media buffered with 0.165 M MOPS at pH 7.0 (herein referred to as “RPMI media”). 90 μL of the Candida inoculum was combined with 10 μL of the 10× test article in a 96-well plate for a final concentration of 1×.
(§5) Except for C. jejuni, all bacterial-strain MIC 96-well plates were incubated at 35±2° C. for 18 to 20 hours, ambient atmosphere. C. jejuni was incubated at 35±2° C. for 48 hours, under microaerophilic condition. All Candida MIC 96-well plates were incubated at 35±2° C. for 24 to 48 hours, ambient atmosphere, until growth in control wells were observed. After incubation, the 96-well plates were examined visually and on a spectrophotometer at absorbance OD650. MIC is defined as the lowest concentration of a compound in which no visible growth is observed.

[2] = tested on: Candida auris CDC 0385; assay: MIC microdilution assay (Example 32); settings: Candidozyma auris, CDC0385; C. auris CDC 0385; RPMI media; 35±2° C. 24 to 48 hours; two values given; read-out: MIC
Experimental: as §1, §2, §3, §4, §5

[3] = tested on: Candida albicans ATCC 90028; assay: MIC microdilution assay; settings: Candida albicans, ATCC90028; C. albicans ATCC 90028; RPMI media; 35±2° C. 24 to 48 hours; two values given; read-out: MIC
Experimental: (§6) Strain numbers starting with “ATCC” were acquired from the American Type Culture Collection (Manassas, VA), while strain numbers starting with “CDC” were acquired from the Centers for Disease Control and Prevention (Atlanta, GA). All strains were maintained as −80° C. frozen glycerol stocks. S. aureus and P. aeruginosa were grown overnight on Tryptic Soy Agar (TSA) plates at 35±2° C., ambient atmosphere, while S. pyogenes was grown overnight on TSA+5% defibrinated sheep blood at 35±2° C., 5% CO2. All fungal species (i.e. C. albicans, C. auris and C. herbarum) were grown on Sabouraud Dextrose Agar (SDA) plates. C. herbarum was grown at 25±2° C. for 5 to 7 days, while all other fungal strains were grown at 35±2° C. overnight.
(§7) Test articles Compound 2 (batch #2G13A0.368) and Compound 23 (batch #2G17A0.372) were received and stored at 4° C. The antibiotic Tobramycin and antifungal Amphotericin B were used as quality control (QC) compounds for the MIC assay. Stock solutions of 3.2 mg/mL Tobramycin (Sigma-Aldrich, cat #T1783-500MG) and 3.2 mg/mL Amphotericin B (CP Lab Chemicals, cat #TOK-A007-1G) were prepared in sterile ultrapure water.
(§8) For bacteria strains, a few colonies of each strain were collected with a sterile swab and used to make a McFarland 0.5 standard solution (approximately 1×10^8 CFU/mL) in sterile PBS. The McFarland was then diluted 1:180 in Cation Adjusted Muller-Hinton Broth (CAMHB) for S. aureus and P. aeruginosa, and in […]+5% defibrinated sheep blood for S. pyogenes. 90 μL of this inoculum was combined with 10 μL of the 10× test article in a 96-well plate for a final concentration of 1×.
as §4
(§9) All bacterial-strain MIC 96-well plates were incubated at 35±2° C. for 18 to 20 hours, while all Candida MIC 96-well plates were incubated at 35±2° C. for 24 to 48 hours. C. herbarum MIC 96-well plates were incubated at 25±2° C. for 3 to 5 days, until growth was visible in the growth control wells. After incubation, the 96-well plates were examined visually and on a spectrophotometer at absorbance OD650. MIC is defined as the lowest concentration of a compound in which no visible growth is observed.

[4] = tested on: Candida auris CDC 0381; assay: MIC microdilution assay; settings: Candidozyma auris, CDC0381; C. auris CDC 0381; RPMI media; 35±2° C. 24 to 48 hours; two values given; read-out: MIC
Experimental: as §6, §7, §8, §4, §9

[5] = tested on: Cladosporium herbarum ATCC MYA-4682; assay: MIC microdilution assay; settings: Cladosporium herbarum; C. herbarum ATCC MYA-4682; RPMI media; 25±2° C. 3 to 5 days; two values given; read-out: MIC
Experimental: as §6
Test articles Compound 2 (batch #2G13A0.368) and Compound 23 (batch #2G17A0.372) were received and stored at 4° C. The antibiotic Tobramycin and antifungal Amphotericin B were used as quality control (QC) compounds for the MIC assay. […]
All bacterial-strain MIC 96-well plates were incubated at 35±2° C. for 18 to 20 hours, while all Candida MIC 96-well plates were incubated at 35±2° C. for 24 to 48 hours. […] After incubation, the 96-well plates were examined visually and on a spectrophotometer at absorbance OD650. […]

[6] = tested on: Staphylococcus aureus ATCC 33591; assay: MIC microdilution assay; settings: Staphylococcus aureus, ATCC33591; S. aureus ATCC 33591; CAMHB; 35±2° C. 18 to 20 hours; two values given; read-out: MIC
Experimental: as §6, §7, §8
All bacterial-strain MIC 96-well plates were incubated at 35±2° C. for 18 to 20 hours, while all Candida MIC 96-well plates were incubated at 35±2° C. for 24 to 48 hours. C. herbarum MIC 96-well plates were incubated at 25±2° C. for 3 to 5 days, until growth was visible in the growth control wells. After incubation, the 96-well plates were examined visually and on a spectrophotometer at absorbance OD650. […]

Measured: MIC

NC[C@H]1O[C@H](O[C@H]2[C@H](O)[C@@H](O[C@H]3O[C@H](CO)[C@@H](O)[C@H](N)[C@H]3O)[C@H](N)C[C@@H]2N)[C@H](N)C[C@@H]1O [Tobramycin]
> 32 µg/mL: all assays above

— US12264170B2, “Antimicrobial organosilanes” (TOPIKOS SCIENTIFIC, INC., priority 2019, dated 2025)
